Laboratory results taken from ChEMBL document CHEMBL3112442, “Anilino-monoindolylmaleimides as potent and selective JAK3 inhibitors” (Bioorg Med Chem Lett, 2014).

What was measured:
[1] = molecular target: Tyrosine-protein kinase JAK1 (Homo sapiens, UniProt P23458)
[2] = molecular target: T1, Tyrosine-protein kinase JAK3 (Homo sapiens, UniProt P52333)
T1 sequence (P52333 whole entry): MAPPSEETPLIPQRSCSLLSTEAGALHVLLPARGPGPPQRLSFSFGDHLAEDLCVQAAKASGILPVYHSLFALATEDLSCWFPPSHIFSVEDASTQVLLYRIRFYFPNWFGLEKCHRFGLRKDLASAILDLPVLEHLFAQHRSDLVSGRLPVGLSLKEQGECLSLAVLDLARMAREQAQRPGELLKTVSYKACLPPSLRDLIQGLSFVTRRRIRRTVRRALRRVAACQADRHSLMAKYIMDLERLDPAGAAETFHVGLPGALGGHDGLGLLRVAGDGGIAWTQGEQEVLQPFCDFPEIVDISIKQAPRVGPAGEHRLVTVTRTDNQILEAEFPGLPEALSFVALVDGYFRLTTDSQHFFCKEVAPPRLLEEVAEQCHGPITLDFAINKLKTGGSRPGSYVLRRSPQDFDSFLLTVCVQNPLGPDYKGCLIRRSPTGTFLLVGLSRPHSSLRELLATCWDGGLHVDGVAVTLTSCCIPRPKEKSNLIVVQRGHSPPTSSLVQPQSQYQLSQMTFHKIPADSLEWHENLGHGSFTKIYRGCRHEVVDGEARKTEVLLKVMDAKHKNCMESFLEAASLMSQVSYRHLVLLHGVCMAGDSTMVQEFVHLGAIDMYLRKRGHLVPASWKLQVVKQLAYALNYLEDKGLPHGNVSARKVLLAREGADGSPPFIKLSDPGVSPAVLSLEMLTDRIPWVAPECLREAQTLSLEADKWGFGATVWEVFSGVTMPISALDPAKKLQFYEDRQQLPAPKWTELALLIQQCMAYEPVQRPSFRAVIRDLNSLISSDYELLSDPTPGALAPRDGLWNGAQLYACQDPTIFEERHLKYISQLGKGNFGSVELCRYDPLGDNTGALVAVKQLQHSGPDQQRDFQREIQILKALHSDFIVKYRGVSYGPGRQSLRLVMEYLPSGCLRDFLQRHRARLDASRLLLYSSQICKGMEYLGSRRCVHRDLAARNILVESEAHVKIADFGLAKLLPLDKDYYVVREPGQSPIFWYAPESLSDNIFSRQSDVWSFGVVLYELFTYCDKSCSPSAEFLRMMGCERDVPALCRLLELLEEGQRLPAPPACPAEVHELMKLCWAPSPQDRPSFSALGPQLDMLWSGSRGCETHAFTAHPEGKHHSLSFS

[3] = molecular target: Non-receptor tyrosine-protein kinase TYK2 (Homo sapiens, UniProt P29597)
Sequence of Non-receptor tyrosine-protein kinase TYK2 (P29597 whole entry): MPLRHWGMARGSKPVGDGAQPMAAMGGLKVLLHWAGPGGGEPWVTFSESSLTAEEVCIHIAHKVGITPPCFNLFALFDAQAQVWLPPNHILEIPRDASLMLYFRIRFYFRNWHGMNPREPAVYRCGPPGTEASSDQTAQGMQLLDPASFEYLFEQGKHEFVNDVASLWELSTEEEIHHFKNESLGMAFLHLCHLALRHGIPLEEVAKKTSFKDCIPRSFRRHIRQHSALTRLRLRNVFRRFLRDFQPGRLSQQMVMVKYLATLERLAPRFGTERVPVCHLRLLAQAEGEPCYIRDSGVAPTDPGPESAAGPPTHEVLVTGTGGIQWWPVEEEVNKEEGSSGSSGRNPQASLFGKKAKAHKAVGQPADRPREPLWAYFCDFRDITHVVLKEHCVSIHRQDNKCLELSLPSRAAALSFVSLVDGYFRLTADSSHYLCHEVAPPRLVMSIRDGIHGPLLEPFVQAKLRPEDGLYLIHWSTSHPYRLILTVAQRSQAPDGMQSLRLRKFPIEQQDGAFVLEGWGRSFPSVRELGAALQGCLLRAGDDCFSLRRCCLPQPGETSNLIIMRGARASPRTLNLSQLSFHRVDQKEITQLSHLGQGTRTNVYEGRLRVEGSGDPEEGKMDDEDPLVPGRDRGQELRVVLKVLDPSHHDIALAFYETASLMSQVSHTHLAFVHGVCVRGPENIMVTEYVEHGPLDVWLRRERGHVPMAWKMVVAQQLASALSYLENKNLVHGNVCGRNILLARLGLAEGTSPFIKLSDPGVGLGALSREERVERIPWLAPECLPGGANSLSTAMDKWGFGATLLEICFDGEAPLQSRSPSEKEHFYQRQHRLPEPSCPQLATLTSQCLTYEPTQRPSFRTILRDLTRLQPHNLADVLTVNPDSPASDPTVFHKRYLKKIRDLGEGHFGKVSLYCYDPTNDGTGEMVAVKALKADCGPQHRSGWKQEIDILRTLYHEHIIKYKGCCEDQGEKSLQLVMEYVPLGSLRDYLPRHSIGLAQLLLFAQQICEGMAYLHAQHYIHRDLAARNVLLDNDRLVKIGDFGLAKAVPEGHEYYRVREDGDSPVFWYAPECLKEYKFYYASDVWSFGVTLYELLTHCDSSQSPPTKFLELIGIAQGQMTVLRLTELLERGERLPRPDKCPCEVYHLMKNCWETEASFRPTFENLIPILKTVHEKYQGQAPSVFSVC

Sequence of Tyrosine-protein kinase JAK1 (P23458 whole entry): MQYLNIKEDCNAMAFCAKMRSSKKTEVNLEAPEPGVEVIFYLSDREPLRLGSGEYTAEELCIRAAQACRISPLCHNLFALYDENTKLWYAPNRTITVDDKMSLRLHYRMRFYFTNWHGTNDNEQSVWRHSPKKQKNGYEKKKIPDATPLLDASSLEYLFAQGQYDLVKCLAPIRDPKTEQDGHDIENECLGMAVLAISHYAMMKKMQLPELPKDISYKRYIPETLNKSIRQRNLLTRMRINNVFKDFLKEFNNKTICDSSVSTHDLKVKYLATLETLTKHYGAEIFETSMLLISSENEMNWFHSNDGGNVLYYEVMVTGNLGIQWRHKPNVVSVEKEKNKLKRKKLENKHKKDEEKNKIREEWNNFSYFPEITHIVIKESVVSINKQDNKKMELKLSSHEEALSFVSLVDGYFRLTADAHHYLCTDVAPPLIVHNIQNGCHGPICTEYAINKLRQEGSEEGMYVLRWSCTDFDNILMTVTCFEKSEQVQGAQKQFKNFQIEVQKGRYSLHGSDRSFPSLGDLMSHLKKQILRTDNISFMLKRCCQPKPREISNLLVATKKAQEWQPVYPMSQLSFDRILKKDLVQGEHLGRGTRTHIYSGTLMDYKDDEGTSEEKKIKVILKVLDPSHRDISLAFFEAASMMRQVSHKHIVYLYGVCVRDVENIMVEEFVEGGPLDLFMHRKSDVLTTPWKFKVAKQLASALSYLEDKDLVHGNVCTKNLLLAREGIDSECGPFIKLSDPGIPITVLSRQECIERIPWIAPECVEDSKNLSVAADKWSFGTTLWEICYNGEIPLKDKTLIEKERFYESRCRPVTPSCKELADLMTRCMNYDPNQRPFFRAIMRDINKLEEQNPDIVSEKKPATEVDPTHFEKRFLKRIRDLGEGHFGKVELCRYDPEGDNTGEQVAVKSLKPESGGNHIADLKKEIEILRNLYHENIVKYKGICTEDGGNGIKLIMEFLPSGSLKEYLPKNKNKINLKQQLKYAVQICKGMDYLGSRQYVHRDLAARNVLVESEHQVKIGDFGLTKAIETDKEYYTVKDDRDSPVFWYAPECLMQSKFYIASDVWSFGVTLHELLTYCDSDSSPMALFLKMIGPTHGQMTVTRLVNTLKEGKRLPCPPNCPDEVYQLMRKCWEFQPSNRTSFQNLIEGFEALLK

IC50 [1] | IC50 [2] | IC50 [3] | Structure (SMILES)
> 10 µM | 1.79 µM | > 10 µM | O=C1NC(=O)C(c2c[nH]c3ccccc23)=C1Nc1cccc(OCCn2ccnc2)c1
4.82 µM | 0.625 µM | > 10 µM | O=C1NC(=O)C(c2c[nH]c3ccccc23)=C1Nc1cccc(OC2CCN(c3ccnc(F)c3)CC2)c1
– | 1.5 µM | – | O=C1NC(=O)C(c2c[nH]c3ccccc23)=C1Nc1cccc(OCCNc2ccccn2)c1
> 10 µM | 0.163 µM | > 10 µM | O=C1NC(=O)C(c2c[nH]c3ccccc23)=C1Nc1cccc(OC2CCCN(c3ccnc(F)c3)C2)c1 (racemic)
4.9 µM | 0.497 µM | > 10 µM | O=C1NC(=O)C(c2c[nH]c3ccccc23)=C1Nc1cccc(O[C@@H]2CCN(c3ccnc(F)c3)C2)c1
2.17 µM | 0.576 µM | > 10 µM | O=C1NC(=O)C(c2ccccc2)=C1Nc1cccc(OCCNc2ccnc(F)c2)c1
1.78 µM | 0.179 µM | 5.1 µM | Cn1cc(C2=C(Nc3cccc(OCCNc4ccnc(F)c4)c3)C(=O)NC2=O)c2ccccc21
> 10 µM | > 10 µM | > 10 µM | O=C1NC(=O)C(c2c[nH]c3ccccc23)=C1Nc1cccc(C2CCN(c3ccnc(F)c3)CC2)c1
> 10 µM | 9.37 µM | > 10 µM | O=C1NC(=O)C(c2c[nH]c3ccccc23)=C1Nc1ccccc1OCCn1ccnc1
– | 1.39 µM | – | O=C1NC(=O)C(c2c[nH]c3ccccc23)=C1Nc1cccc(OCCNc2cc(F)cc(F)c2)c1
0.423 µM | 0.029 µM | > 10 µM | O=C1NC(=O)C(c2c[nH]c3ccccc23)=C1Nc1cccc(OCCNc2ccnc(F)c2)c1
> 10 µM | > 10 µM | > 10 µM | O=C1C=C(Nc2cccc(OCCNc3ccnc(F)c3)c2)C(=O)N1
> 10 µM | > 10 µM | > 10 µM | O=C1NC(=O)C(c2c[nH]c3ccccc23)=C1Nc1cccc(C2CCN(c3ccnc(F)c3)C2)c1 (racemic)
0.564 µM | 0.012 µM | 11.9 µM | O=C1NC(=O)C(c2c[nH]c3ccccc23)=C1Nc1cccc(OC2CCN(c3ccnc(F)c3)C2)c1 (racemic)
> 10 µM | > 10 µM | > 10 µM | O=C1NC(=O)C(c2c[nH]c3ccccc23)=C1Nc1ccccc1OCCNc1ccnc(F)c1
> 10 µM | 0.046 µM | 0.995 µM | CN(CCOc1cccc(NC2=C(c3c[nH]c4ccccc34)C(=O)NC2=O)c1)c1ccnc(F)c1
8.64 µM | 1.15 µM | > 10 µM | O=C1NC(=O)C(c2c[nH]c3ccccc23)=C1Nc1ccc(OCCCn2ccnc2)cc1
2.06 µM | 0.201 µM | 9.84 µM | O=C1NC(=O)C(c2c[nH]c3ccccc23)=C1Nc1ccc(OCCNc2ccnc(F)c2)cc1
> 10 µM | 0.278 µM | 7.37 µM | O=C1NC(=O)C(c2c[nH]c3ccccc23)=C1Nc1ccc(OCCn2ccnc2)cc1
– | 0.408 µM | – | O=C1NC(=O)C(c2c[nH]c3ccccc23)=C1Nc1cccc(OCCNc2cnccn2)c1
– | 1.38 µM | – | O=C1NC(=O)C(c2c[nH]c3ccccc23)=C1Nc1cccc(OCCNc2ccccc2)c1
1.06 µM | 0.135 µM | > 10 µM | O=C1NC(=O)C(c2c[nH]c3ccccc23)=C1Nc1ccc(OCCCNc2ccnc(F)c2)cc1
0.311 µM | – | 1.69 µM | CC(C)(O)C(=O)N1CCN(c2ccc(C(F)(F)F)c(C3=C(c4c[nH]c5ccccc45)C(=O)NC3=O)c2)CC1
11.1 µM | 0.576 µM | > 10 µM | O=C1NC(=O)C(c2c[nH]c3ccccc23)=C1Nc1cccc(C2CN(c3ccnc(F)c3)C2)c1
0.77 µM | 0.017 µM | 2.31 µM | O=C1NC(=O)C(c2cn(CCCn3ccnc3)c3ccccc23)=C1Nc1ccccc1
0.628 µM | 0.013 µM | – | O=C1NC(=O)C(c2c[nH]c3ccccc23)=C1Nc1cccc(O[C@H]2CCN(c3ccnc(F)c3)C2)c1
4.1 µM | 0.2 µM | > 10 µM | O=C1NC(=O)C(c2c[nH]c3ccccc23)=C1Nc1cccc(OC2CN(c3ccnc(F)c3)C2)c1
0.3 µM | 0.128 µM | > 10 µM | O=C1NC(=O)C(c2c[nH]c3ccccc23)=C1Nc1cccc(OCCCn2ccnc2)c1
